Like-named read-outs stand apart in the source and are kept apart here.
What was measured:
[1] = Methylene blue gut assay (GI transit time); assay type: in vivo, C57BL/6 mice
Description: In order to determine the rate at which oral solutions such as WR-2721 traverse the digestive tract of 8-week old C57BL/6 mice following oral gavage, a 1% (w/v) solution of methylene blue in PBS was gavaged in a total volume of 0.1 ml. Mice were then euthanized at 5, 10, 15, 25 and 30 min after the dye administration and the progress of the methylene blue stain through the intestines was examined. Mice were anesthetized with isoflurane 8 min prior to euthanasia following the same procedure used prior to irradiation (8 min at 3% isoflurane and oxygen flow rate of 2 L/min) to account for any potential changes it might have on GI transit time. Methylene blue dye progress was examined in situ for comparison with the location of our standard radiation field and then the intestine was excised so that distance traveled could be determined.

[2] = Tolerability: body weight and food consumption as a model of nausea; assay type: in vivo, C57BL/6JLaw mice
Description: (§1) WR-2721 Trihydrate (Toronto Research Chemicals Inc; North York, Ontario, Canada) was diluted in PBS (with 0.2 conversion factor to adjust for trihydrate) and was administered by IP injection at 25 or 250 or 500 mg/kg or by oral gavage at doses […] 150 to 1000 mg/kg in a volume of 0.1 ml.
Severe nausea is a common and worrisome side effect of systemic WR-2721, and the concern that oral administration of the drug might exacerbate this side effect was examined. […] Thus, body weight and food consumption was closely monitored as a model of nausea in mice. Based on the results of the microcolony assay (FIG. 1), 500 mg/kg were used as the dose for toxicity testing. Mice were treated daily for 5 consecutive days with vehicle or WR-2721 administered IP or Per os (PO), and body weight and food consumption were monitored daily (FIGS. 2A and 2B, respectively). There was only one vehicle control group that was subjected to both gavage and intraperitoneal injections to more stringently control for the stress of drug administration from either IP or PO route. Despite this intensive intervention, the vehicle control animals maintained their initial bodyweight and food consumption throughout the study (FIGS. 2A and 2B).

[3] = test system: C57BL/6 mice given lethal fractionated radiation; test: Survival study after fractionated SBRT to the upper abdomen; assay type: in vivo, C57BL/6JLaw mice; conditions: oral 500 mg/kg 25 min prior to each of 5 daily fractions of 12.5 Gy, 10 mm field; all vehicle controls died in fewer than 10 days
Description: (§2) For survival studies, SBRT was given for 5 consecutive days 25 min after administration of vehicle or WR-2721 using the XRAD 225Cx small animal irradiator (Precision X-Ray; North Branford, Conn.) fitted with a conformal collimator to produce a circular 10 mm diameter radiation field. Mice were anesthetized with isoflurane gas for CT imaging and irradiation. Each mouse was imaged using the XRAD 225Cx cone beam CT prior to irradiation in order to align the radiation field so that the cranial edge of the field was located 5 mm below the diaphragm at the isocenter of the mouse. This field exposed the pancreas, duodenum, jejunum and liver to radiation. Radiation was administered anterior-posterior-posterio-anterior (AP-PA).
(§3) Mice were treated with WR-2721 or vehicle by intraperitoneal (IP) injection or oral gavage followed by SBRT and monitored on a daily basis. […] Time to euthanasia and percent survival were assessed.
It was hypothesized that the maximal benefit of radioprotection would likely occur between 12 and 13 Gy at 12.5 Gy×5 fractions (62.5 Gy; D2Eq=117.2 Gy). […] Remarkably, 100% of mice that received oral WR-2721 lived beyond 30 days, while all vehicle controls died in fewer than 10 days FIG. 3D, log rank p=0.0035).

[4] = test system: KPC mice with spontaneous pancreatic cancer; test: Survival of tumor-bearing KPC mice after SBRT; assay type: in vivo, Kras LSL/+; Trp53 FL/+; Ptf1a Cre/+ (KPC) mice; conditions: SBRT 12.5 Gy x 5 + oral WR-2721 25 min prior to each fraction; VEH and SBRT+VEH 15 days
Description: as §2, §3
Further confirmation is illustrated in FIG. 6. KPC Mice were enrolled onto the study shortly after diagnosis and were treated to vehicle alone, SBRT with vehicle or SBRT with oral WR-2721. The SBRT field was 10 mm given AP/PA to the tumor and the dose was 12.5 Gy per day for 5 consecutive days for a total dose of 62.5 Gy (EQD2=117.2 Gy; α/β10=140.6). The tumors were identified by micro CT and ultrasound on a daily basis without fiducials. […]

[5] = given intravenously; cited from earlier work
[6] = test system: duodenal and jejunal crypts; test: Microcolony assay (Withers-Elkind), surviving crypts after 12 Gy whole body irradiation; assay type: in vivo, C3Hf/KamLaw mice; conditions: jejunum, oral, 30 min prior to 12 Gy WBI; no further benefit at 1000 mg/kg
Description: as §1
For the microcolony assay, a single dose of 12 Gy whole body irradiation (WBI) was administered 15 min or 30 min after WR-2721 treatment using a Pantak 300 x-ray unit (Pantak; East Haven, Conn.), with 300 kVp X-rays at a dose rate of 1.84 Gy/min. Un-anesthetized mice were loosely restrained in a well ventilated 15×15×2 cm Lucite box during WBI.
Viable jejunal crypts were quantified following a single dose of 12 Gy WBI+/− a single oral dose of WR-2721 given at 15 min or 30 min prior to radiation using the microcolony assay. Mice were euthanized 3 days and 14 hours after receiving WBI, and segments of jejunum and duodenum were resected and fixed in 10% neutral buffered formalin. Tissue was then embedded in paraffin, and four transverse slices of jejunum and duodenum were stained with hematoxylin and eosin per mouse. The number of regenerating crypts per transverse section was scored microscopically and averaged over the 4 sections per animal for each tissue type. All slides were scored by a single observer blinded to treatment group. […]

[7] = mouse, in vivo, 25 min
Description: Next, the specificity of WR-1065 enrichment in intestines was determined in a genetically engineered mouse model. Kras^LSL/+; Trp53^FL/+; Ptfla^Cre/+ (KPC) mice that develop spontaneous pancreatic cancer were bred, and then backcrossed to a C57BL/6 background over 10 generations to eliminate the confounding issue of genetic variance from […] mice. These autochthonous tumors are thought to recapitulate the desmoplasia observed in human tumors that may make these tumors more aggressive. To be an effective an effective clinical radioprotectant, WR-1065 should not accumulate in tumors. Thus, plasma, liver, duodenum, jejunum and pancreatic tumors were collected 25 min after oral administration of 500 mg/kg (HED=41 mg/kg), or IP administration of 250 mg/kg WR-2721 (HED=20 mg/kg) to determine the concentrations of the WR-1065 (see schema in FIG. 4D).

[8] = LC/MS-MS analysis of WR-1065 plasma and tissue concentrations, C57BL/6 mice; conditions: WR-2721 500 mg/kg oral, 25 min
Description: Mice were treated with either 500 mg/kg of WR-2721 by oral gavage, or 250 mg/kg by IP injection. After 17 min had elapsed, the mice were anesthetized with isoflurane gas (3% isoflurane, oxygen flow rate of 2 L/min). After 8 min of anesthesia, whole blood and tissues were collected. The total amount of time between treatment and tissue collection was 25 min.
While under isoflurane anesthesia, the whole blood sample was collected via cardiac puncture and was immediately transferred to a BD Microtainer® blood collection tube containing K2-EDTA (Becton Dickinson; Franklin Lakes, N.J.). The K2-EDTA whole blood was then processed to plasma by centrifugation at 3,000 g for 4 min. After processing, a volume of the plasma supernatant (typically 200 μL) was removed and immediately transferred to a fresh 1.4 mL Matrix polypropylene (PP) tube (Thermo Fisher Scientific; Waltham, Mass.) containing a 50 μL aliquot of 10% trichloroacetic acid (TCA). After vortexing, the TCA-treated plasma samples were stored on ice for transport from the vivarium to the laboratory for further processing. The TCA-treated plasma samples were then centrifuged at 17,000 g for 5 min, and the supernatant was transferred to a fresh 1.4 mL Matrix tube, and the samples were either extracted and analyzed immediately or capped for −80° C. storage until analysis. […]

[9] = oral 500 mg/kg daily for 5 consecutive days

**Q.** What does the source list for CN(C)c1ccc2nc3ccc(=[N+](C)C)cc-3sc2c1 [Methylene blue, methylene blue]?
**A.** time at which dye was in the jejunum ([1]; C57BL/6, mouse, in vivo, po): 15 to 30 min; time to reach the duodenum ([1]; C57BL/6, mouse, in vivo, po): ≤ 10 min; dye front within 30 min ([1]; oral gavage, 1% (w/v) in PBS, 0.1 ml): had not reached the cecum or large intestine

**Q.** What does the source list for NCCCNCCSP(=O)(O)O [WR-2721, S-2-(3-aminopropylamino)ethyl dihydrogen phosphorothioate]?
**A.** day by which euthanasia was required ([2]; intraperitoneal 500 mg/kg daily): ≤ 4 days; body weight and food consumption ([2]; intraperitoneal 500 mg/kg daily, 5 consecutive days planned): dramatic decrease in food consumption and body weight; body weight and food consumption [2, 9]: modest initial decrease in body weight and food consumption; time to complete recovery of body weight after stopping treatment [2, 9]: ≤ 2 days; mice that lived beyond 30 days [3]: 100%; median survival [4]: 40 days; side effects [5]: severe nausea and hypotension; dose at which radiation protection was maximized [6]: 500 mg/kg; WR-1065 concentration in duodenum ([7]; ip, 250 mg/kg): 236.2±8.6 pmol WR-1065/mg tissue; WR-1065 concentration in jejunum ([7]; ip, 250 mg/kg): 275.5±5.0 pmol WR-1065/mg tissue; WR-1065 concentration in liver ([7]; ip, 250 mg/kg): 420±69.8 pmol WR-1065/mg tissue; WR-1065 concentration in pancreatic tumors ([7]; ip, 250 mg/kg): 248±30.2 pmol WR-1065/mg tissue; WR-1065 concentration in duodenum ([7]; po, 500 mg/kg): 200.6±23.3 pmol WR-1065/mg tissue; WR-1065 concentration in jejunum ([7]; po, 500 mg/kg): 757.7±26.8 pmol WR-1065/mg tissue; WR-1065 concentration in liver ([7]; po, 500 mg/kg): 59.9±26.8 pmol WR-1065/mg tissue; WR-1065 concentration in tumor ([7]; po, 500 mg/kg): 24.5±1.9 pmol WR-1065/mg tissue; enrichment of the drug in the intestines compared to tumor ([7]; po, 500 mg/kg): 10-40 fold; enhancement of WR-1065 within duodenum and jejunum compared to liver [8]: six- to twelve-fold
